Tests used:
Assay type in all cases: cell-based
MRGPRX2 [1] = target: T1, MRGPRX2 (Homo sapiens, UniProt Q96LB1); experiment: MRGPRX2 FLIPR calcium mobilization assay; design: host or cells: CHO-K1; details: CHO-K1 cells stably expressing human MRGPRX2; Ca2+ release; agonist Cortistatin-14 at EC80
T1 sequence (Q96LB1 1-330): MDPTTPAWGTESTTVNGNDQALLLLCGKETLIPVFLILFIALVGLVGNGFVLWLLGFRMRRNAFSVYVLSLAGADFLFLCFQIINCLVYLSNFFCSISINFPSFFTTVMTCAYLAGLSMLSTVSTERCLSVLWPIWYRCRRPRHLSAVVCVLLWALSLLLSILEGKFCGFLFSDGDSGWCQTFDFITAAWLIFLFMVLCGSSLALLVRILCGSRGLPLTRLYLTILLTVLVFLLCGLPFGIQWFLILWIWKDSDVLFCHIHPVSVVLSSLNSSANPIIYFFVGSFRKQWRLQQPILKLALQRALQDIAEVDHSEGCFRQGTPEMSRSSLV
Method: Example A. MRGPRX2 FLIPR Calcium Mobilization Assay
Chinese hamster ovary (CHO-K1) cells stably expressing human MRGPRX2 were purchased from Genescript (Piscataway, NJ). The cells were maintained in culture medium (Ham's F-12K) containing 10% (v/v) FBS, 200 μg/mL Zeocin, 100 units/mL penicillin G and 100 μg/mL streptomycin (Life Technologies, Carlsbad, CA). For the assay, the cells were harvested and resuspended with culture medium without Zeocin before plating at 8000 cells per well in 20 μL in 384-well black clear bottom cell culture plates (VWR, Radnor, PA). After 24 hour culture at 37° C. and 5% CO2, the cells were loaded with 20 μL/well of calcium dye (FLIPR Calcium 6 Assay Kit, Molecular Devices, San Jose, CA) diluted in loading buffer (1× Hank's Balanced Salt Solution (HBSS), 5 mM probenecid, 20 mM 4-(2-hydroxyethyl)-1-piperazineethanesulfonic acid (HEPES), pH 7.4, VWR, Radnor, PA) followed with 45 min. incubation at 37° C. and 40 min. at r.t. in the dark. Cells were then treated with the addition of 10 uL/well test compounds with a range of increasing concentrations diluted in the assay buffer (1×HBSS, 20 mM HEPES, pH 7.4, VWR, Radnor, PA) with FLIPR Penta (Molecular Devices. San Jose, CA) and incubated for 30 min. at r.t. Ca^2+ release was measured with FLIPR Penta with 10 seconds basal fluorescence measurement, then 12.5 μL of 5× agonist Cortistatin-14 (Tocris, Minneapolis, MN) at final concentration corresponding to the EC80 were added followed with continued fluorescence signal monitoring for an additional 110 seconds. The base line adjusted (median of first 10s base line) max value of the Relative Fluorescence Unit (RFU) was plotted against compound concentrations. Wells with no compound were served as the positive controls, and wells with high concentration of reference antagonist were used as negative controls. IC50 curves were globally fitted with 3- or 4-parameter Hill equation in a Genedata Screener (Genedata Basel, Switzerland).

MRGPRX2 [2] = target: T1, MRGPRX2; experiment: MRGPRX2 β-Arrestin recruitment assay (PathHunter); design: host or cells: CHO-K1 (PathHunter); details: PathHunter CHO-K1 MRGPRX2 β-Arrestin cell line; agonist Cortistatin 14 0.25 μM
Text: Example C: MRGPRX2 P-Arrestin Assay
This assay measures compound inhibition of P-Arrestin recruitment, which is part of the G protein-independent pathway that results from the ligand-activated GPCR phosphorylation by specific GPCR kinases. The PathHunter CHO-K1 MRPGRX2 B-Arrestin Cell line stably expressing ProLink tagged MRGPRX2 and Enzyme Acceptor Tagged B-Arrestin was purchased from Eurofins DiscoverX, (Fremont, CA).
The cells were maintained in culture medium from the Europhins DiscoverX Cell Culture Kit-107 which includes FBS, hygromycin B and G418. For the assay, the cells were harvested and were resuspended with Cell Plating Reagent 2 (Eurofins DiscoverX). Cells were added 10000 cells in 25 μL/well to a 384-well black cell culture plate (Greiner VWR, Radnor, PA) which contained 125 nL/well of compound at a selected serially diluted concentration range or DMSO. The plate was incubated at 37° C. with 5% CO2 for 1 h. 2 μL/well of agonist Cortistatin 14 was diluted in Protein Dilution Buffer, (Eurofins DiscoverX) for a final concentration of 0.25 μM, was added and the plate was incubated at 37° C. with 5% CO2 for 90 min. 14 μL/well of Detection Reagent Mix (PathHunter Detection Kit, Eurofins DiscoverX) was added to the plates and further incubated for 1 h in the dark. Plates were read on the PHERAstar microplate reader (BMG Labtech Cary, NC) measuring luminescence 0.1 to 1 second per well. Data was normalized using DMSO only wells and wells with high concentration of reference antagonist as controls. Compound IC50 curves were globally fitted with 3- or 4-parameter Hill equation in a Genedata Screener (Genedata Basel, Switzerland).

MRGPRX2 [3] = target: T1, MRGPRX2; experiment: MRGPRX2 IP1 HTRF assay; design: host or cells: CHO-K1; details: CHO-K1 cells stably expressing human MRGPRX2; IP1 accumulation; agonist Cortistatin 14 1 μM
Text: Example B: MRGPRX2 IP1 HTRF Assay
This assay measures compound inhibition of myo-Inositol 1 phosphate (IP1) accumulation in CHO-K1 cells. Chinese hamster ovary (CHO-K1) cells stably expressing human MRGPRX2 were purchased from GenScript (Piscataway, NJ).
For the HTRF IP1 determination, an IP-One GqKit (Perkin Elmer Cisbio, Waltham, MA), which includes all reagents and buffers in this protocol, was used. The cells were maintained in culture medium (Ham's F-12K) containing 10% (v/v) FBS, and 200 μg/mL Zeocin. For the assay, the cells were harvested and resuspended in culture medium with 2% FBS and without Zeocin, then were passed through a 40 μm filter. Cells were added at 20000 cells in a 5 μL/well to a 384-well white small volume cell culture plate (Greiner VWR, Radnor, PA) which contained 50 nL/well of test compound serially diluted at a selected concentration range in DMSO. 5 μL/well of prepared 2× Stimulation Buffer2 was then added to plates and was incubated at 37° C. with 5% CO2 for 1 h. 5 μL/well of agonist Cortistatin 14 (Bio-TechneR&D Systems, Minneapolis, MN) in 1× Stimulation Buffer2, for a 1 μM final concentration, was then added to plates and incubated at 37° C. with 5% CO2 for 1 h. 6 μL/well of 1:20 diluted Detection Reagent Mix (d2 and Cryptate) was added to the plates and incubated for 1 h in the dark. Plates were read on the PHERAstar microplate reader (BMG Labtech Cary, NC) to determine the HTRF ratio of the acceptor and donor emission signals. The IP1 concentrations were calculated from a standard curve following the IP-One GQ kit instructions. Wells with DMSO only and wells with high concentration of reference antagonist were used as controls for normalization. Compound IC50 curves were globally fitted with 3- or 4-parameter Hill equation in a Genedata Screener (Genedata Basel, Switzerland).

| SMILES | IC50 (MRGPRX2 [1]) [µM] | IC50 (MRGPRX2 [2]) [µM] | IC50 (MRGPRX2 [3]) [µM] |
| --- | --- | --- | --- |
| OC1CCC(CNc2cc(C(F)(F)F)nc3cc(Br)nn23)(c2ccccc2)C1 (racemic) [Example 84, 3-(((2-Bromo-5-(trifluoromethyl)pyrazolo[1,5-a]pyrimidin-7-yl)amino)methyl)-3-phenylcyclopentan-1-ol] | 0.0001 to 0.1 | 0.0001 to 0.1 | – |
| Cn1nc(N2CCC(CNc3cc(C(F)(F)F)nc4cc(C(F)(F)F)nn34)(c3ccc(F)cc3)CC2)ccc1=O [Example 40, 6-(4-(((2,5-Bis(trifluoromethyl)pyrazolo[1,5-a]pyrimidin-7-yl)amino)methyl)-4-(4-fluorophenyl)piperidin-1-yl)-2-methylpyridazin-3(2H)-one] | 0.0001 to 0.1 | 0.0001 to 0.1 | – |
| Cn1cc(N2CC(CNc3cc(C(F)(F)F)nc4cc(C(F)(F)F)nn34)(c3ccc(F)cc3)C2)nn1 [Example 46, N-((3-(4-Fluorophenyl)-1-(1-methyl-1H-1,2,3-triazol-4-yl)azetidin-3-yl)methyl)-2,5-bis(trifluoromethyl)pyrazolo[1,5-a]pyrimidin-7-amine] | 0.0001 to 0.1 | 0.0001 to 0.1 | – |
| NC(=O)c1cccc(N2CC(CNc3cc(C(F)(F)F)nc4cc(C(F)(F)F)nn34)(c3ccc(F)cc3)C2)n1 [Example 47, 6-(3-(((2,5-Bis(trifluoromethyl)pyrazolo[1,5-a]pyrimidin-7-yl)amino)methyl)-3-(4-fluorophenyl)azetidin-1-yl)picolinamide] | 0.0001 to 0.1 | 0.0001 to 0.1 | – |
| Cc1cc2nc(I)cc(NCC3(c4ccccc4)CCOC3)n2n1 (stereo not shown) [Example 78, 5-Iodo-2-methyl-N-((3-phenyltetrahydrofuran-3-yl)methyl)pyrazolo[1,5-a]pyrimidin-7-amine] | 0.1 to 1 | – | – |
| N#Cc1cc2nc(C(F)(F)F)cc(NCC3(n4cccn4)CN(S(N)(=O)=O)C3)n2n1 [Example 95, 3-(((2-Cyano-5-(trifluoromethyl)pyrazolo[1,5-a]pyrimidin-7-yl)amino)methyl)-3-(1H-pyrazol-1-yl)azetidine-1-sulfonamide] | 0.0001 to 0.1 | – | – |
| O=C(N[C@H]1CC[C@H](O)CC1)N1CC(CNc2cccc3nc(C(F)(F)F)cn23)(c2ccc(F)cc2)C1 [Example 102, 3-(4-Fluorophenyl)-N-((1r,4r)-4-hydroxycyclohexyl)-3-(((2-(trifluoromethyl)imidazo[1,2-a]pyridin-5-yl)amino)methyl)azetidine-1-carboxamide] | – | 0.0001 to 0.1 | 0.0001 to 0.1 |

Results, then the molecule that gave them:

| IC50 (MRGPRX2 [1]) [µM] | IC50 (MRGPRX2 [2]) [µM] | IC50 (MRGPRX2 [3]) [µM] | SMILES |
| --- | --- | --- | --- |
| – | 0.0001 to 0.1 | 0.0001 to 0.1 | [2H]C([2H])([2H])NC(=O)N1CC(CNc2cccc3nc(C(F)(F)F)nn23)(c2ccc(F)cc2)C1 [Example 103, 3-(4-Fluorophenyl)-N-(methyl-d3)-3-(((2-(trifluoromethyl)-[1,2,4]triazolo[1,5-a]pyridin-5-yl)amino)methyl)azetidine-1-carboxamide] |
| 0.0001 to 0.1 | – | – | CN(C)c1cc(NCC2(c3ccc(F)cc3)CN(S(N)(=O)=O)C2)n2nc(C(F)(F)F)cc2n1 [Example 105, 3-(((5-(Dimethylamino)-2-(trifluoromethyl)pyrazolo[1,5-a]pyrimidin-7-yl)amino)methyl)-3-(4-fluorophenyl)azetidine-1-sulfonamide] |
| – | 0.0001 to 0.1 | 0.0001 to 0.1 | [2H]C([2H])([2H])c1cc(NCC2(c3ccc(F)cc3)CN(C(=O)NCC(F)(F)F)C2)n2nc(C(F)(F)F)cc2n1 [Example 109, 3-(4-Fluorophenyl)-3-(((5-(methyl-d3)-2-(trifluoromethyl)pyrazolo[1,5-a]pyrimidin-7-yl)amino)methyl)-N-(2,2,2-trifluoroethyl)azetidine-1-carboxamide] |
| – | 0.0001 to 0.1 | 0.0001 to 0.1 | [2H]C([2H])([2H])c1cc(NCC2(c3ccc(F)cc3)CN(C(=O)NCC(F)F)C2)n2nc(C(F)(F)F)cc2n1 [Example 110, N-(2,2-Difluoroethyl)-3-(4-fluorophenyl)-3-(((5-(methyl-d3)-2-(trifluoromethyl)pyrazolo[1,5-a]pyrimidin-7-yl)amino)methyl)azetidine-1-carboxamide] |
| – | 0.0001 to 0.1 | 0.0001 to 0.1 | [2H]C([2H])([2H])C([2H])([2H])c1cc(NCC2(c3ccc(F)cc3)CN(C(N)=O)C2)n2nc(C(F)(F)F)cc2n1 [Example 111, 3-(((5-(Ethyl-d5)-2-(trifluoromethyl)pyrazolo[1,5-a]pyrimidin-7-yl)amino)methyl)-3-(4-fluorophenyl)azetidine-1-carboxamide] |
| – | 0.0001 to 0.1 | 0.0001 to 0.1 | [2H]C([2H])([2H])C([2H])([2H])c1cc(NCC2(c3ccc(F)cc3)CN(C(=O)N[C@H]3CC[C@H](O)CC3)C2)n2nc(C(F)(F)F)cc2n1 [Example 112, 3-(((5-(Ethyl-d5)-2-(trifluoromethyl)pyrazolo[1,5-a]pyrimidin-7-yl)amino)methyl)-3-(4-fluorophenyl)-N-((1r,4r)-4-hydroxycyclohexyl)azetidine-1-carboxamide] |
| – | 0.0001 to 0.1 | 0.0001 to 0.1 | [2H]C([2H])([2H])C([2H])([2H])c1cc(NCC2(c3ccc(F)cc3)CN(C(=O)N[C@@H]3CC[C@@H](O)C3)C2)n2nc(C(F)(F)F)cc2n1 [Example 113, 3-(((5-(Ethyl-d5)-2-(trifluoromethyl)pyrazolo[1,5-a]pyrimidin-7-yl)amino)methyl)-3-(4-fluorophenyl)-N-((1R,3R)-3-hydroxycyclopentyl)azetidine-1-carboxamide] |
